For experiment [1], the system named is Chlorella sp. ATCC 7516. The experiment is described as follows: Algal efficacy testing of dry paint films (modified ASTM 5589, 6-well plates). It counts as cell-based. The conditions noted are these: 3 weeks; for % inhibition: at the listed total conc, versus blank sample; for Total conc (lowest concentration passing, pass level ≧75% inhibition): total biocide in acrylic/silicone paint, dry film on filter paper. The method, then: (§1) Slurries containing 33% antimicrobial active ingredient (chlorotoluron) and 45% antimicrobial ingredient terbutryn were post added to a white, acrylic/silicone based outdoor paint free of biocides to give a total active ingredient concentration of 10000 and 1000 ppm respectively. These paints were then diluted with an antimicrobial free acrylic/silicone based paint and mixed to prepare targeted concentrations of antimicrobial compounds for the testing. The total biocides concentrations tested were 125, 250, 500, 1000, 2000 and 5000 ppm. After biocides addition or dilution, the paints were mixed 90 seconds with the horse power shaker (AXEL 75M3372/Agitateur SO-10MI) until uniformity was achieved. Paints containing different antimicrobial compounds at the same levels were mixed together in order to obtain the desired ratio of antimicrobial compounds. After one day, the paints were applied to Schleicher & Schuell filter paper at 280 μm wet film thickness and dried for 3 days at room temperature avoiding direct exposure to sunlight. Square discs (1.6 cm×1.6 cm) were cut out from each panel and were used as the substrate for algal efficacy tests. This sample size allowed for an agar border when the sample disc was placed into the well of the test plate.
(§2) Algal efficacy was tested according to modified ASTM 5589 which is a standard accelerated test method for determining resistance of various coatings (including paints) to algal defacement. To accommodate for high-throughput screening, this method was scaled down from petri dishes to 6-well plates. Bold Modified Basal Freshwater Nutrient Solution was used as growth medium. A single coated filter paper coupon was placed with a pair of sterile forceps at the center of the agar plug (on top) with the painted surface facing upwards. Algal inoculums were prepared by mixing equal concentrations (1×10^6 cfu/ml) and equal volumes of exponentially growing algae cultures.
(§3) Each well that contains a tested coupon was inoculated with 1750 μl of algal suspensions (1×10^6 cfu/ml) making sure that the whole surface (paint film as well as the agar surrounding it) was evenly covered. The plates were incubated at room temp (21° C.-25° C.) with cyclic exposure to light and dark phases, for a period of three weeks. The total area inhibited was evaluated at the end of each week according to percent area covered in 5% increments
(§4) At the end of the three week incubation period, the samples were scored for percent inhibition regarding color intensity compared to the blank sample.
(§5) The SI is calculated based on F. C. Kull et.
(§6) SI value of <1 in the formula indicates a synergism of the blended biocides exists.
(§7) The minimal targeted inhibition was set at 75%, meaning a coupon with at least 75% algal growth inhibition was considered as a pass.

For experiment [2], the system named is Stichococcus bacillaris SAG 379-1a / CCAP 379/1a. The experiment is described as above. The conditions noted are these: 3 weeks; for % inhibition: at the listed total conc, versus blank sample; for Total conc (lowest concentration passing, pass level ≧75% inhibition): total biocide in acrylic/silicone paint, dry film on filter paper. It counts as cell-based. How it is done:
as §1, §2, §3, §4, §5, §6, §7

The values below come from patent US20160050932A1, “SYNERGISTIC COMBINATION OF A CHLOROTOLURON COMPOUND AND TERBUTRYN FOR DRY FILM PROTECTION” (Rohm and Haas Company, priority 2013, published 2016).

Structures are written as SMILES.

With `Cc1ccc(NC(=O)N(C)C)cc1Cl` [Chlorotoluron, N′-(3-chloro-4-methylphenyl)-N,N-dimethylurea], the % inhibition (in general, the change of the read-out against control, counted positive when it falls) in experiment [1] was determined as 100%; in experiment [2], 90%. In addition, the results for the “Total conc (lowest concentration passing, pass level ≧75% inhibition)” value in experiment [1] and in experiment [2] were 1000 ppm and 500 ppm, respectively.
Consider `CCNc1nc(NC(C)(C)C)nc(SC)n1` [Terbutryn, N^2-tert-butyl-N^4-ethyl-6-methylthio-1,3,5-triazine-2,4-diamine], for which, in experiment [1], the “% inhibition” value turned out to be 90% and the “Total conc (lowest concentration passing, pass level ≧75% inhibition)” value came out at 500 ppm. Besides, in experiment [2], the “% inhibition” value stood at 80% and the “Total conc (lowest concentration passing, pass level ≧75% inhibition)” value worked out at 2000 ppm.
